Consider 2 compounds from US20230105108A1, “COMPOUNDS FOR THE TREATMENT OF BACTERIAL INFECTIONS AND POTENTIATION OF ANTIBIOTICS” (GEORGIA STATE UNIVERSITY RESEARCH FOUNDATION, INC., priority 2019, published 2023).

Each structure is given as a SMILES string. Structures can show the parent of a compound that is named as a salt.

Common to all, as to format: cell-based
A short description of experiment [1]: IC50 of Table 7 (cell line not stated).
Another experiment concerns E. coli (ATCC 25922). In words: Antibiotic uptake in the presence and absence of MD-100 (HPLC). The settings on record: E. coli lysate, presence vs absence of 25 μg/ml MD-100. How it is done:
Direct comparison of the antibiotic uptake in the presence and absence of MD-100 through HPLC study. E. coli (ATCC 25922) was cultured in Mueller Hinton II cation-adjusted broth for overnight at 37° C. to reach a density of OD600 of 0.8 to 1.0. To 20 ml fresh Mueller Hinton II cation-adjusted broth was added 50 μl E. coli stock, 200 μl 5 mg/ml O—CH3 novobiocin and 100 μl 10 mM MD-100. In the other group, the same amount of E. coli stock, O—CH3 novobiocin was used in the absence of MD-100. Then E. coli was incubated for 20 h at 37° C. with continuous shaking of 200 rpm. After, the E. coli suspension was centrifuged at 3000 g for 10 min and the culture media was removed to obtain bacteria pallet. The pallets from the two groups was re-suspended in PBS to reach the same OD600 of 2.0. To this E. coli suspension was spiked with 10 μM internal standard. 1 ml E. coli from each group in PBS was lysed by sonication on ice for 15 min, followed by adding 2 ml MeOH, the mixture was then centrifuged at 3000 g for 5 min and the supernatant was analyzed by HPLC. 20 μl of each sample was injected into Shimadzu Prominence UFLC (column: Waters C18, […], 4.6×100 mm, injection loop volume: 20 μl). The mobile phase was acetonitrile (ACN)/H2O (with 0.05% trifluoroacetic acid in the aqueous) with ratios defined as: 20%˜55% ACN, 0˜10 min; 55%˜65% ACN, 10˜20 min; 65%˜20% ACN, 20˜25 min. […]

Experiment [2] concerns A. baumannii (ATCC 17978). The experiment is described as follows: MIC, sensitization fold and FIC index on A. baumannii. The settings on record: Acinetobacter baumannii, ATCC17978; A. baumannii; read-out: MIC of MD-124.
In experiment [3] the test system is NDM-1 expressing E. coli strain. The experiment is described as follows: microbe, parasite or virus in culture. To be noted: Escherichia coli; NDM-1 expressing E. coli; read-out: MIC of MD-124.

By IC50 is commonly meant the concentration that inhibits the measured activity by half. High values mean weaker potency in that assay, low ones greater potency in that assay.

`Cc1cc(COc2ccc(C(=N)N)cc2)cc(COc2ccc(C(=N)N)cc2)c1` [MD-100, 4,4′-(((5-methyl-1,3-phenylene)bis(methylene))bis(oxy))dibenzimidamide dihydrochloride] returned a concentration for half-maximal inhibition (IC50) in experiment [1] of 100 µM. In addition, in the experiment on E. coli (ATCC 25922), the “relative intracellular concentration of O-methyl novobiocin” value is reported as “greatly increased”.

Take `N=C(N)c1ccc(COc2cc(OCc3ccc(C(=N)N)cc3)cc(C(F)(F)F)c2)cc1` [MD-124, 4,4′-(((5-(trifluoromethyl)-1,3-phenylene)bis(oxy))bis(methylene)) dibenzimidamide dihydrochloride]: the MIC came out at 25 mg/L in experiment [2] and 50 mg/L in experiment [3].
